Molecular target: T1, AEK1 (Trypanosoma brucei, UniProt Q582V7)
T1 construct: gene Tb03.48O8.470
Test: TR-FRET displacement of probe SCP-2
Assay type: binding
Details: read-out: % control^a

T1 sequence (Q582V7 entry or part of it): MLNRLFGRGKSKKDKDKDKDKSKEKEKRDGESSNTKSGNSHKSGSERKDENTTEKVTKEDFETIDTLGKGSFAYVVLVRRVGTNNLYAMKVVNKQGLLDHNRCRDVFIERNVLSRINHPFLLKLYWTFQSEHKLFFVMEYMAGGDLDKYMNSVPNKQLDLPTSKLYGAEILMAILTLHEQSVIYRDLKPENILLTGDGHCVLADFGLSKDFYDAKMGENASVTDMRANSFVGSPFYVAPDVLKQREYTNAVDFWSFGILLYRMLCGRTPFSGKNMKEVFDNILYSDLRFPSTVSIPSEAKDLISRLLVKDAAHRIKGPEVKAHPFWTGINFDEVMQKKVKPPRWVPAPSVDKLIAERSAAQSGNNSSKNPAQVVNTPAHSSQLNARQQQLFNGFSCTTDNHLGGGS

| Structure (SMILES) | probe binding remaining (% of control) at 1 µM |
| --- | --- |
| COc1cc2c(Oc3ccc4[nH]c(C)cc4c3F)ncnc2cc1OCCCN1CCCC1 [Cediranib (AZD2171)] | 36.6% |
| Cn1cc(-c2[nH]c3cc(NC(=O)[C@H](N)C4CCCCC4)cc4c3c2C=NNC4=O)cn1 [PF-477736] | 23.1% |
| Cc1nc(Nc2[nH]nc3c2CN(C(=O)N[C@H](CN(C)C)c2ccccc2)C3(C)C)c2sccc2n1 [PF-3758309] | 38.2% |
| Cc1c[nH]c2nc(Nc3ccc(N4CCN(C)CC4)c(F)c3)nc(-c3cccc(CC#N)c3)c12 [SGI-7079] | 43.7% |
| CCS(=O)(=O)c1cccc(-c2cc(C(=O)NC3CCN(C)CC3)c(C)c3[nH]c4ncc(C)cc4c23)c1 [TAK-901] | 20.1% |
